Measured values from patent US10718769B2, “Compounds comprising one or more hydrophobic domains and a hydrophilic domain comprising peg moieties, useful for binding cells” (Roche Diagnostics Operations, Inc., priority 2013, dated 2020).
“And” between values parts separate entries of the source, which are not always exact repeats. Equal entries are not always repeated. Where two headings read alike, the source gives them in different places.

What was measured:
white blood cells (WBCs) = settings: for WBC per well: 300 000 WBCs/well
Protocol: Aim of this experiment: Testing of the white blood cell immobilization on a streptavidin-coated surface using different molecules of the invention. In particular, the performance of a single cholesterol-molecule and different dual-linker molecules (i.e. containing two hydrophobic moieties) was tested. In detail, immobilization of white blood cells (WBCs) on a Streptavidin-coated surface using different linker molecules was tested on a 12-well plate: 300 000 WBCs/well. This was followed by the measurement of the cell recovery rate after immobilization and washing of the cells using the Cellavista instrument (10× Nuclei Operator s9s5).

WBC (white blood cells) = settings: for MW (mean WBC per well): target: 300.000 WBC
Protocol: 4× determination. Row A: 200 μl PBS introduced, 1 nmol of compound added thereto respectively, mixed, incubated about 30 min, washed 2×PBS, 800 μl PBS introduced, 300.000 WBC (untreated) added. Row B: 800 μl PBS introduced, 300.000 WBC (untreated) added. Row C: 10×10^6 WBC in 1 ml with 10 nmol compound of invention 10 min incubated, 800 μl PBS/Well introduced, 300.000 treated WBC respectively. The first MTP plate washed after 30 min 2× with PBS, overlayed with Höchst and incubated for 15 min.>Cellavista (Operator s9s5) measured. The second plate was measured after 90 min. The third plate was measured after 150 min.
The experiments were performed for different incubation times, as shown below:
As starting material 5′-(Cholesteryl-TEG)2-PEG2000-Fluos-Biotin_TEG-3′ INVERS
(14530 pmol/μl) (Internal Reference No.: 29.891250), and a streptavidin treated MTP (Microcoat), 12 Well plate were used.
Erythrocyte lysis was performed as follows:
EDTA-whole blood 59.423 6.400 WBC/μl (Ambulanz Roche)
lysis buffer: 100 mM NH4Cl+5 mM Hepes+0.5 mM KHCO3+0.1 mM EDTA-K
Ca 1×8 ml whole blood filled in 50 ml Falcon tube with lysis buffer, incubate at room temperature for 10 min
15 min at 250 g centrifugated, pellet resuspended by pipetting in and out in lysis buffer; filled to 50 ml with lysis buffer
15 min 250 g centrifugated, pellet resuspended with PBS, filled to 50 ml with PBS, 15 min 250 g centrifugated, filled to 50 ml with PBS
The design of the experiment on the plate is explained below (see FIG. 2):
3×12 Well MTP: Treatment of the WBC with compounds of the invention:
Row A: 200 μl PBS introduced, 1 nmol of compound added thereto respectively, mixed, incubated about 30 min, washed 2×PBS,
800 μl PBS introduced, 300.000 WBC (untreated) added.
Row B: 800 μl PBS introduced, 300.000 WBC (untreated) added.
Row C: 10×10^6 WBC in 1 ml with 10 nmol compound of invention 10 min incubated, 800 μl PBS/Well introduced, 300.000 treated WBC respectively.
The first MTP plate washed after 30 min 2× with PBS, overlaid with Höchst and incubated for 15 min.>Cellavista (Operator s9s5) measured.
The second plate was measured after 90 min.
The third plate was measured after 150 min.

Epithelial cells = experiment: Labelling of cells using compounds of the invention; assay type: cell-based
Text: (§1) 2. Labelling of Cells Using Compounds of the Invention

MDA-MB468 = experiment: as above; assay type: cell-based
Text: as §1

U937 = experiment: as above; assay type: cell-based
Text: as §1

WBCs = experiment: as above; assay type: cell-based
Text: as §1

WBC = WBC recovery rate after centrifugation (stabilization of cells, Example 5); assay type: cell-based; settings: centrifugation 10 min, 300×g
Protocol: (§2) Centrifugation characteristics: 10 min, 300×g.
as §2
The respective left, middle and right columns per assay represent different Experimenters 1, 2 and 3. […] Centrifugation characteristics: 10 min, 300×g. Molecule: Cholesteryl-TEG-Cholesteryl-TEG-(SpacerC18)7-Fluos-Biotin-TEG.
Following molecules were tested: 1234: 5′-(Cholesteryl-TEG)2-Spacer C18-dT-Biotin-TEG-3′; 1248: 3′-(Cholesteryl-TEG)2-PEG2000-Fluos-Biotin-TEG-5′ INVERS; 1254: 3′-(Cholesteryl-TEG)2-SpacerC18-Fluos-Biotin-TEG-5′ INVERS; 1255: 3′-(Myristic acid)2-PEG2000-dT-Biotin-TEG-5′ INVERS. […] Centrifugation characteristics: 20 min, 300×g. Respective left column: 10 min incubation with molecule. Respective middle column: 1 h min incubation with molecule. Respective right column: 2 h incubation with molecule.
Following molecules were tested: 1255: 3′-(Myristic acid)2-PEG2000-dT-Biotin-TEG-5′ INVERS; 1234: 5′-(Cholesteryl-TEG)2-Spacer C18-dT-Biotin-TEG-3′; 1248: 3′-(Cholesteryl-TEG)2-PEG2000-Fluos-Biotin-TEG-5′ INVERS; 1254: 3′-(Cholesteryl-TEG)2-SpacerC18-Fluos-Biotin-TEG-5′ INVERS. […] Centrifugation characteristics: 20 min, 500×g. Respective left column: 10 min incubation with molecule. Respective middle column: 1 h min incubation with molecule. Respective right column: 3 h incubation with molecule.
Following molecules were tested: 1255: 3′-(Myristic acid)2-PEG2000-dT-Biotin-TEG-5′ INVERS; 1234: 5′-(Cholesteryl-TEG)2-Spacer C18-dT-Biotin-TEG-3′; 1248: 3′-(Cholesteryl-TEG)2-PEG2000-Fluos-Biotin-TEG-5′ INVERS; 1254: 3′-(Cholesteryl-TEG)2-SpacerC18-Fluos-Biotin-TEG-5′ INVERS. […] Centrifugation characteristics: 20 min, 1000×g. Respective left column: 10 min incubation with molecule. Respective middle column: 1 h min incubation with molecule. Respective right column: 2 h incubation with molecule.
The effect of compounds of the invention on stabilizing cells and on immobilization was determined.
Centrifugation characteristics: 10 min, 300×g. A: Choleseryl-TEG-Cholesteryl-TEG-(SpacerC18)7-Fluos-Biotin-TEG.
Centrifugation characteristics: 10 min, 300×g. Molecule: Cholesteryl-TEG-Cholesteryl-TEG-(SpacerC18)7-Fluos-Biotin-TEG.
Centrifugation characteristics: 20 min, 300×g.
Following molecules were tested: • 1255: 3′-(Myristic acid)2-PEG2000-dT-Biotin-TEG-5′ INVERS • 1234: 5′-(Cholesteryl-TEG)2-Spacer C18-dT-Biotin-TEG-3′ • 1248: 3′-(Cholesteryl-TEG)2-PEG2000-Fluos-Biotin-TEG-5′ INVERS • 1254: 3′-(Cholesteryl-TEG)2-SpacerC18-Fluos-Biotin-TEG-5′ INVERS

Hela = experiment: Labelling of cells using compounds of the invention; assay type: cell-based; settings: * one cell stained weakly
Text: as §1

CHO = experiment: as above; assay type: cell-based
Text: as §1

[1] = Sample 1, first block of the table (r4-r12), footnote: 1 nmol/10e6 WBCs
[2] = Sample 1, second block of the table (r13-r21), compound concentration: 1 nmol/10e6 WBCs
[3] = Sample 2, compound concentration: 100 pmol/10e6 WBCs
[4] = Sample 2, compound concentration: 1 nmol/10e6 WBCs

5′-(Cholesteryl-TEG)2-Spacer C12-dT-Biotin_TEG-3′ INVERS [29.891253]
WBC per well (white blood cells (WBCs); [1]): 105061 and 128195 and 139678 | WBC per well (white blood cells (WBCs); [2]): 218861 and 221471 and 208802 | Mean (WBC per well) (white blood cells (WBCs); [3]): 187757.67 | WBC per well (white blood cells (WBCs); [3]): 178919 and 197130 and 187224 | Mean (WBC per well) (white blood cells (WBCs); [4]): 237052.33 | WBC per well (white blood cells (WBCs); [4]): 239105 and 240632 and 231420

5′-(Cholesteryl-TEG)2-PEG2000-Fluos-Biotin_TEG-3′ INVERS [29.891250]
Mean % / WBC recovery rate [%] (WBC (white blood cells); 30 min, WBC treated (molecule of invention + cells)): 77.28% | MW (mean WBC per well) (WBC (white blood cells); 30 min, WBC treated): 231829.75 | Mean % / WBC recovery rate [%] (WBC (white blood cells); 30 min, Well treated (molecule of invention bound to surface)): 21.64% | MW (mean WBC per well) (WBC (white blood cells); 30 min, Well treated): 64909 | Mean % / WBC recovery rate [%] (WBC (white blood cells); 90 min, WBC treated (molecule of invention + cells)): 83.12% and 83.1% | MW (mean WBC per well) (WBC (white blood cells); 90 min, WBC treated): 249346.25 | Mean % / WBC recovery rate [%] (WBC (white blood cells); 90 min, Well treated (molecule of invention bound to surface)): 47.62% and 47.6% | MW (mean WBC per well) (WBC (white blood cells); 90 min, Well treated): 142865 | Mean % / WBC recovery rate [%] (WBC (white blood cells); 120 min, WBC treated (molecule of invention + cells)): 86.23% | MW (mean WBC per well) (WBC (white blood cells); 120 min, WBC treated): 258692.75 | Mean % / WBC recovery rate [%] (WBC (white blood cells); 120 min, Well treated (molecule of invention bound to surface)): 57.02% | MW (mean WBC per well) (WBC (white blood cells); 120 min, Well treated): 171062.75

5′-Cholesteryl-TEG-PEG2000-Fluos-3′ [BMO 29.891132]
Labelling (staining) of Epithelial cells (Epithelial cells): √ | Labelling (staining) of MDA-MB468 (MDA-MB468): √ | Labelling (staining) of U937 (U937): √ | Labelling (staining) of WBCs (WBCs): √ not all

Biotin-PEG-Lysin-(C18)2
WBC recovery rate after centrifugation, dependence on concentration (WBC; listed as molecule B): The higher the molecule concentration, the higher the cell recovery rate after centrifugation

5′-(Cholesterol-TEG)1-Doubler-dT-Biotin-3′ [29.891272]
WBC per well (white blood cells (WBCs); [1]): 147132 and 179643 and 181620 | WBC per well (white blood cells (WBCs); [2]): 199973 and 220701 and 228481 | Mean (WBC per well) (white blood cells (WBCs); [3]): 186316.33 | WBC per well (white blood cells (WBCs); [3]): 161504 and 201424 and 196021 | Mean (WBC per well) (white blood cells (WBCs); [4]): 247418.33 | WBC per well (white blood cells (WBCs); [4]): 241232 and 254894 and 246129

CCCCCCCCCCCCCCCC(=O)OC[C@H](COP(=O)(O)OCCNC(=O)CCc1ccc2n1[B-](F)(F)[N+]1=C(C)C=C(C)C1=C2)OC(=O)CCCCCCCCCCCCCCC.CCN(CC)CC [Phosphatidylethanolamine, N-(4,4-difluoro-5,7-dimethyl-4-bora-3a,4a-diaza-s-indacene-3-propionyl)-1,2-dihexadecanoyl-sn-glycero-3-phosphoethanolamine, triethylammonium salt]
Labelling (staining) of Hela (Hela): x/√ very weak

5′-alphaTocopherolTEG-PEG2000-Fluos-3′ [BMO 29.891131]
Labelling (staining) of Epithelial cells (Epithelial cells): √ | Labelling (staining) of MDA-MB468 (MDA-MB468): √ | Labelling (staining) of U937 (U937): √ | Labelling (staining) of WBCs (WBCs): √ not all

Sulfo-JA133-phenylboronic acid [BMO: 15.000078]
Labelling (staining) of Epithelial cells (Epithelial cells): √ | Labelling (staining) of WBCs (WBCs): √ not all

CCCCCCCCCCCCC/C=C/[C@@H](O)[C@H](COP(=O)([O-])OCC[N+](C)(C)C)NC(=O)CCCCc1ccc2n1[B-](F)(F)[N+]1=C(C)C=C(C)C1=C2 [Sphingomyelin, N-(4,4-difluoro-5,7-dimethyl-4-bora-3a,4a-diaza-s-indacene-3-pentanoyl)sphingosyl phosphocholine]
Labelling (staining) of CHO (CHO): x very weak | Labelling (staining) of Epithelial cells (Epithelial cells): √ | Labelling (staining) of Hela (Hela): √ | Labelling (staining) of WBCs (WBCs): (x)- very bad

5′-CholesterylTEG-CholesterylTEG-(SpacerC18)7-Fluos-BiotinTEG-3′ [BMO 29.891222_Ch03]
WBC recovery rate after centrifugation, dependence on concentration (WBC): The higher the molecule concentration, the higher the cell recovery rate after centrifugation | Cell stabilization with different experimenters (WBC; Experimenters 1, 2 and 3): cell stabilization is independent on the experimenter | WBC recovery rate after centrifugation, dependence on concentration (WBC; listed as molecule A): The higher the molecule concentration, the higher the cell recovery rate after centrifugation
